The values below come from paper PMC5693660 (Amino acids, 2017).

In the experiment the target is T1, deoxyhypusine synthase (DHS) (Homo sapiens, UniProt P49366).
T1 sequence (P49366 1-369): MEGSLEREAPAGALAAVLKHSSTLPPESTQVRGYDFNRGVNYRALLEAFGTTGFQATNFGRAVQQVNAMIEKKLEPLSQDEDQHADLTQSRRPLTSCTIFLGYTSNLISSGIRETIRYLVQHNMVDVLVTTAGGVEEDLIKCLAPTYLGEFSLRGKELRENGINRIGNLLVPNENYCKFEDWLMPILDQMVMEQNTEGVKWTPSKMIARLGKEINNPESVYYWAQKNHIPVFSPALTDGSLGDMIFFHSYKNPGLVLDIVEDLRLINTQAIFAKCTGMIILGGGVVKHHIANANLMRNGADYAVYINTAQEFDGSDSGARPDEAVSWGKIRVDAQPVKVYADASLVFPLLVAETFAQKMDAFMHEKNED
It counts as biochemical.

Broadly, the IC50 is the concentration that inhibits the measured activity by half. A low value points to greater potency in that assay. Compound `N=C(N)NCCCCCCCN` [GC7] registered an IC50 of less than 1000 nM.
